# “And” between values parts separate entries of the source, which are not always exact repeats. Equal values may be shown once.
# Target: T1, MAO-A (Rattus norvegicus, UniProt P21396)
# T1 construct: employing crude rat brain mitochondrial suspension; from tissue; host or cells: brain mitochondria of adult Wistar rats
# T1 sequence (P21396 1-526): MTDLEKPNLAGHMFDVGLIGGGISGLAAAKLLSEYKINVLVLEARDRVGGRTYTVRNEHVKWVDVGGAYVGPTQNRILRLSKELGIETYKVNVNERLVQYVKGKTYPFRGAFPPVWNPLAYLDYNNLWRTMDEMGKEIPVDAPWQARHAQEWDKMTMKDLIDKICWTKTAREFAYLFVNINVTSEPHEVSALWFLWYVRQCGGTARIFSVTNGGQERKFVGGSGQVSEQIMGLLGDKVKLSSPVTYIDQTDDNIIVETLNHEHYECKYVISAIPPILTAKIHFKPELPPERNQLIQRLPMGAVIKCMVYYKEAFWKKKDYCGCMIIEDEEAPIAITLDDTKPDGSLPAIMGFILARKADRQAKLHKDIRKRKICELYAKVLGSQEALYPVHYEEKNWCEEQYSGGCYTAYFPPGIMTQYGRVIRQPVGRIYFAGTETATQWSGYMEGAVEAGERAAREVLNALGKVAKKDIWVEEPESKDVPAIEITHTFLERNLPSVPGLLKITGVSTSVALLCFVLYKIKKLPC
# Experiment: In vitro MAO-A inhibition assay (rat brain mitochondria, serotonin substrate)
# Type: biochemical
# Conditions: rat brain mitochondria, serotonin substrate, mean ± SEM, triplicate; read-out: MAO-A In vitro IC50 (µM) ± SEM
# Method: (§1) Rat brain mitochondria were used as a source of MAO isoforms. All operations were carried out at 4 °C[50]. Male and female adult Wistar rats weighing 200–220 g were decapitated. All brains were rapidly removed and homogenised with a Potter–Elvehjem homogeniser in cold 0.32 M sucrose and 50 mM Tris-HCl, pH 8.2 (10:1, v/w). The homogenate was centrifuged twice at 1000 g for 5 min at 4 °C. The resulting supernatant was centrifuged at 20,000 g for 20 min. The mitochondrial pellet obtained was suspended in 100 mM sodium phosphate buffer, pH 7.4 (4:1, v/w), fractionated in plastic vials to 500 µl samples and stored at −80 °C. Before use, mitochondria were diluted with 100 mM sodium phosphate buffer to give a working solution of 0.80 mg of protein per millilitre.
# (§2) The experiments were carried out under all the suitable laboratory conditions. […] An aliquot was made to contain mixture of 55 µl mitochondrial suspension (0.80 mg of protein/ml), 90 µl 50 mM Tris-HCl buffer, pH 8.2 and 30 µl solubilising solution (control or inhibitor solution at five different concentrations). The reaction was initiated by adding 25 µl of serotonin (4 mM, substrate for MAO-A) and 25 µl benzylamine (0.1 M, substrate for MAO-B) for the determination of MAO-A and MAO-B activity, respectively. The mixture was incubated at 37 °C for 30 min and the reaction was stopped by the addition of 50 µl of 1 N HCl. The absorbance associated with the production of 5-hydroxyindolacetic acid was measured at 280 nm for the estimation of MAO-A while for MAO-B estimation, the absorbance was measured at 250 nm due to the formation of benzaldehyde. All the assays were performed in triplicate. Control experiments were carried out without inhibitor and blanks were run without mitochondrial suspension.
# (§3) Data are expressed as mean ± standard error mean (SEM) of experiments performed in triplicate.
# (§4) 0, 15, 30 and 60 min at 37 °C in Tris-HCl buffer (50 mM, pH 8.2). […] The reactions were further incubated at 37 °C for a further 15 min and the residual enzyme activities were measured and the bar graphs were constructed. All measurements were carried out in triplicate and are expressed as mean ± SEM.
row,Compound,IC50
1,"O=C(NN=Cc1c(Cl)cccc1Cl)Nc1ncc([N+](=O)[O-])s1 [Compound 14, 1-(2,6-Dichlorobenzylidene)-4-(5-nitrothiazol-2-yl)semicarbazide]",13910 ± 19.7 µM
2,"CC(=NNC(=O)Nc1ncc([N+](=O)[O-])s1)c1ccc(F)cc1 [Compound 6, 1-(1-(4-Fluorophenyl)ethylidene)-4-(5-nitrothiazol-2-yl)semicarbazide]",> 100 µM and 46100 µM
3,"O=C(NN=Cc1ccc(O)cc1)Nc1ncc([N+](=O)[O-])s1 [Compound 11, 1-(4-Hydroxybenzylidene)-4-(5-nitrothiazol-2-yl)semicarbazide]",11340 ± 11.7 µM

# Tested on: mice
# Experiment: Neurotoxicity screening (rotarod test)
# Type: in vivo
# Conditions: 30 mg/kg i.p., 0.5 h
# Method: The neurotoxicity screening was undertaken according to the method followed by the National Institute of Health, using their reported procedures[55]^,[56]. Male albino mice (CF-1 strain or Swiss, 18–25 g) were used as experimental animals. The animals were housed in metabolic cages, and allowed free access to food and water. The test compounds were suspended in 0.5% methylcellulose/water mixture or in polyethylene glycol (PEG 200).
# Minimal motor impairment was measured in mice by the rotarod test. The mice were trained to stay on an accelerating rotarod that rotates at six revolutions per minute. The rod diameter was 3.2 cm. Trained animals were given i.p. injection of the selected inhibitors at a dose of 30 mg/kg. Neurotoxicity was indicated by the inability of the animal to maintain equilibrium on the rod for at least 1 min in each of the three trials.
row,Compound,Neurotoxicity (animals that exhibit toxicity / animals tested)
1,"O=C1NC(=O)C(c2ccccc2)(c2ccccc2)N1 [Phenytoin, reference compound]",0/4

# Same assay, conditions: 30 mg/kg i.p., 1 h
row,Compound,Neurotoxicity (animals that exhibit toxicity / animals tested)
1,"O=C1NC(=O)C(c2ccccc2)(c2ccccc2)N1 [Phenytoin, reference compound]",0/4

# Same assay, conditions: 30 mg/kg i.p., 2 h
row,Compound,Neurotoxicity (animals that exhibit toxicity / animals tested)
1,"O=C1NC(=O)C(c2ccccc2)(c2ccccc2)N1 [Phenytoin, reference compound]",0/4

# Same assay, conditions: 30 mg/kg i.p., 4 h
row,Compound,Neurotoxicity (animals that exhibit toxicity / animals tested)
1,"O=C1NC(=O)C(c2ccccc2)(c2ccccc2)N1 [Phenytoin, reference compound]",0/2

# Tested on: not listed separately
# Experiment: In vitro DPPH radical scavenging assay
# Conditions: test sample 100 µg/ml, 100 µM methanolic DPPH, 30 min, 517 nm
# Method: Antioxidant activity of the synthesised compounds (10 mg/ml) was evaluated using the radical scavenging capability against the stable free radical, 2,2′-diphenyl-1-picryl hydrazyl (DPPH·). The DPPH· scavenging capability was determined using UV based spectrophotometric assay. About 200 µl of the test sample solution (100 µg/ml) was added to 4 ml of 100 µM methanolic DPPH. […] Ascorbic acid (100 µg/ml) was used as reference. The percentage inhibition of DPPH activity was estimated using the formula: Percent (%) inhibition of DPPH activity = Acontrol-Asample/Acontrol×100 where Acontrol is the absorbance of DPPH· in methanol without an antioxidant and Asample is the absorbance of DPPH· in the presence of an antioxidant.
row,Compound,% inhibition of DPPH activity [%]
1,"O=C1O[C@H]([C@@H](O)CO)C(O)=C1O [Ascorbic acid, reference compound]",61.24
2,"O=C(NN=Cc1c(Cl)cccc1Cl)Nc1ncc([N+](=O)[O-])s1 [Compound 14, 1-(2,6-Dichlorobenzylidene)-4-(5-nitrothiazol-2-yl)semicarbazide]",55.29
3,"CC(=NNC(=O)Nc1ncc([N+](=O)[O-])s1)c1ccc(F)cc1 [Compound 6, 1-(1-(4-Fluorophenyl)ethylidene)-4-(5-nitrothiazol-2-yl)semicarbazide]",30.43

# Target: T2, rat brain AChE (Rattus norvegicus, UniProt P37136)
# T2 construct: the resulting clear supernatants obtained were used as enzyme sources; from tissue; host or cells: rat brain cortex homogenate, 10,000 g supernatant
# T2 sequence (P37136 32-614): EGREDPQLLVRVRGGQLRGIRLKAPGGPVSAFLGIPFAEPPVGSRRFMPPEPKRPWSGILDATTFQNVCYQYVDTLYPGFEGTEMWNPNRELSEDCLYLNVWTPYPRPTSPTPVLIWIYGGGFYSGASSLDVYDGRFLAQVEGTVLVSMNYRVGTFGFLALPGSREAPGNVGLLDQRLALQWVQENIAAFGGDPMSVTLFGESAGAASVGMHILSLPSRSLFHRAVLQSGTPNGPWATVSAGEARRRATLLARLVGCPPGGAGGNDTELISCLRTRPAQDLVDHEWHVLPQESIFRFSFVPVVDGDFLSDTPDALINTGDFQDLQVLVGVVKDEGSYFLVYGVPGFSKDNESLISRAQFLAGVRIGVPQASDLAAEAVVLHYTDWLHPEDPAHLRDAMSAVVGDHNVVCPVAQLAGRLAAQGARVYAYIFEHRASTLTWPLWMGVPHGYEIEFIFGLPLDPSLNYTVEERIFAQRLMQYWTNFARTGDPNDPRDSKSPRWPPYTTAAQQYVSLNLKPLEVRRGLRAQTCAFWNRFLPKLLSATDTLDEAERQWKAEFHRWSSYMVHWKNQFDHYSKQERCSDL
# Experiment: biochemical
# Type: biochemical
# Conditions: halogen at carbimino terminal phenyl ring
# Method: Rat brain was used as a source of AChE enzyme. Rats were separately decapitated, the brain cortices quickly removed, weighed and homogenised in cold 10 mM Tris-HCl buffer, pH 7.2, containing 160 mM sucrose. The homogenates were centrifuged at 10,000 g for 10 min at 4 °C, and the resulting clear supernatants obtained were used as enzyme sources that were divided into aliquots and stored at −20 °C.
# About 30 µl of enzyme sample (AChE) was added to 60 µl of 20 mM sodium phosphate buffer (pH 7.4) and were incubated in the presence of 30 µl of 10 mM DTNB solution with different concentrations of the test compounds. The enzyme reaction was initiated by the addition of 30 µl of 0.8 mM ACTI. The mixtures were incubated for 15 min at 25 °C. […] Control experiments were carried out without inhibitor, and blanks were run without AChE enzyme. All the assays were performed in triplicate. IC50 values were determined using the GraphPad Prism 5.0 (San Diego, CA) and the results were expressed as mean ± SEM.
# as §4, with “25” for “37”, “sodium phosphate” for “Tris-HCl”, “(20” for “(50”, “7.4) and DTNB solution (10 mM).” for “8.2).”, “reaction was” for “reactions were”
row,Compound,AChE: fold decrease in activity versus bromo substitution (compound 4) [fold]
1,"CC(=NNC(=O)Nc1ncc([N+](=O)[O-])s1)c1ccc(F)cc1 [Compound 6, 1-(1-(4-Fluorophenyl)ethylidene)-4-(5-nitrothiazol-2-yl)semicarbazide]",> 1000

# Same assay, conditions: rat brain AChE, ACTI substrate, mean ± SEM, triplicate; read-out: AChE In vitro IC50 (µM) ± SEM
row,Compound,IC50 [µM]
1,"O=C(NN=Cc1c(Cl)cccc1Cl)Nc1ncc([N+](=O)[O-])s1 [Compound 14, 1-(2,6-Dichlorobenzylidene)-4-(5-nitrothiazol-2-yl)semicarbazide]",10.7 ± 0.56
2,"CC(=NNC(=O)Nc1ncc([N+](=O)[O-])s1)c1ccc(F)cc1 [Compound 6, 1-(1-(4-Fluorophenyl)ethylidene)-4-(5-nitrothiazol-2-yl)semicarbazide]",468 ± 4.98
3,"O=C(NN=Cc1ccc(O)cc1)Nc1ncc([N+](=O)[O-])s1 [Compound 11, 1-(4-Hydroxybenzylidene)-4-(5-nitrothiazol-2-yl)semicarbazide]",584 ± 7.92

# Tested on: not listed separately
# Experiment: physchem
# Conditions: octanol/water
row,Compound,logP
1,"O=C(NN=Cc1c(Cl)cccc1Cl)Nc1ncc([N+](=O)[O-])s1 [Compound 14, 1-(2,6-Dichlorobenzylidene)-4-(5-nitrothiazol-2-yl)semicarbazide]",3.1
2,"CC(=NNC(=O)Nc1ncc([N+](=O)[O-])s1)c1ccc(F)cc1 [Compound 6, 1-(1-(4-Fluorophenyl)ethylidene)-4-(5-nitrothiazol-2-yl)semicarbazide]",1.3
3,"O=C(NN=Cc1ccc(O)cc1)Nc1ncc([N+](=O)[O-])s1 [Compound 11, 1-(4-Hydroxybenzylidene)-4-(5-nitrothiazol-2-yl)semicarbazide]",1.6

# Target: T3, MAO-B (Rattus norvegicus, UniProt P19643)
# T3 construct: employing crude rat brain mitochondrial suspension; from tissue; host or cells: brain mitochondria of adult Wistar rats
# T3 sequence (P19643 1-520): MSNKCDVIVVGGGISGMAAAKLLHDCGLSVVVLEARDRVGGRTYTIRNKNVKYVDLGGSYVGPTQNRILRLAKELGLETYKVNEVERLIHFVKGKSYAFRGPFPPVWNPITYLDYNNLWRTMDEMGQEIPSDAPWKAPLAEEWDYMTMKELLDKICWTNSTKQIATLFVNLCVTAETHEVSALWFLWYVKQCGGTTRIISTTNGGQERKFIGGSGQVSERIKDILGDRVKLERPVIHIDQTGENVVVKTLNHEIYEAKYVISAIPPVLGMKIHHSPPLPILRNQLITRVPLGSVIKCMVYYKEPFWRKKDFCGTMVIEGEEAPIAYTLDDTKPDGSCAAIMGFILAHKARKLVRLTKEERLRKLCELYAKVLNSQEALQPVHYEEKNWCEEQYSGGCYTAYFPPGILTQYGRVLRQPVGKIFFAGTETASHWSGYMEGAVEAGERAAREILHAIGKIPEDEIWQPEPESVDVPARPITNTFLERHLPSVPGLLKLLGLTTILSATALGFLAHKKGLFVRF
# Experiment: biochemical
# Conditions: not given
# Method: as §1, §2, §3, §4
row,Compound,IC50 [µM]
1,"O=C(NN=Cc1c(Cl)cccc1Cl)Nc1ncc([N+](=O)[O-])s1 [Compound 14, 1-(2,6-Dichlorobenzylidene)-4-(5-nitrothiazol-2-yl)semicarbazide]",16.9 ± 0.37
2,"CC(=NNC(=O)Nc1ncc([N+](=O)[O-])s1)c1ccc(F)cc1 [Compound 6, 1-(1-(4-Fluorophenyl)ethylidene)-4-(5-nitrothiazol-2-yl)semicarbazide]",19.89 ± 0.032
3,"O=C(NN=Cc1ccc(O)cc1)Nc1ncc([N+](=O)[O-])s1 [Compound 11, 1-(4-Hydroxybenzylidene)-4-(5-nitrothiazol-2-yl)semicarbazide]",241.5 ± 2.31

# Same assay, conditions: isomeric dichloro derivatives
row,Compound,MAO-B: fold less active than compound 13 [fold]
1,"O=C(NN=Cc1c(Cl)cccc1Cl)Nc1ncc([N+](=O)[O-])s1 [Compound 14, 1-(2,6-Dichlorobenzylidene)-4-(5-nitrothiazol-2-yl)semicarbazide]",~4.85

# Same assay, conditions: ratio of experimental IC50(MAO-A)/IC50(MAO-B)
row,Compound,SI (selectivity index for MAO-B)
1,"O=C(NN=Cc1c(Cl)cccc1Cl)Nc1ncc([N+](=O)[O-])s1 [Compound 14, 1-(2,6-Dichlorobenzylidene)-4-(5-nitrothiazol-2-yl)semicarbazide]",821.43
2,"CC(=NNC(=O)Nc1ncc([N+](=O)[O-])s1)c1ccc(F)cc1 [Compound 6, 1-(1-(4-Fluorophenyl)ethylidene)-4-(5-nitrothiazol-2-yl)semicarbazide]",2316.04
3,"O=C(NN=Cc1ccc(O)cc1)Nc1ncc([N+](=O)[O-])s1 [Compound 11, 1-(4-Hydroxybenzylidene)-4-(5-nitrothiazol-2-yl)semicarbazide]",46.96

# Reference: paper PMC6009888, “Design, synthesis, and pharmacological evaluation of 2-amino-5-nitrothiazole derived semicarbazones as dual inhibitors of monoamine oxidase and cholinesterase: effect of the size of aryl binding site” (Journal of Enzyme Inhibition and Medicinal Chemistry, 2017)
